Patent US6576464B2, “Methods for providing differentiated stem cells” (Geron Corporation, priority 2000, dated 2003)

Columns and labels:
H1 hES cells = assay: Stable transfection of feeder-free hES cells with geneticin selection; assay type: cell-based, human; conditions: 200 μg/mL in mEF-conditioned medium
Method: To investigate whether the feeder-free hES cells undergo stable genetic modification, H1 hES cells maintained on Matrigel® were cotransfected with a mixture of 7.5 μg plasmid carrying β-galactosidase driven by the EF1a promoter, and 2.5 μg of plasmid carrying the PGK promoter driving the neophosphotransferase gene. The cells were transfected 48 h after plating them on Matrigel® in mEF-conditioned medium. 10 μg of plasmid plus 15 μl of FuGENE™ were incubated with the cells in 1 mnL for 4 h before adding 2.5 mL of mEF-conditioned medium. After 48 h, medium was exchanged for mEF-conditioned medium supplemented with 200 μg/mL geneticin. Cultures were maintained in this geneticin-containing medium with daily medium exchange for over 21 days. All mock-transfected cultures (i.e., those that received FUGENE™ mixed with water rather than plasmid) died within 48-72 h. Drug resistant colonies arose in the wells transfected with both FUGENE™ and plasmid at a frequency of about 1 in to 10^5 originally transfected cells. The colonies were maintained in geneticin-containing mEF-conditioned medium and expanded.

hTERT = hTERT expression by RT-PCR after exposure to differentiation factors; assay type: cell-based, human; conditions: after exposure of hES cells to the factor
Method: For radioactive relative quantification of individual gene products, QuantumRNA™ Alternate18S Internal Standard primers (Ambion, Austin Tex., USA) were employed according to the manufacturer's instructions. Briefly, the linear range of amplification of a particular primer pair was determined, then coamplified with the appropriate mixture of alternare18S primers:competimers to yield PCR products with coinciding linear ranges. Before addition of AmpliTaq™ (Roche) to PCR reactions, the enzyme was pre-incubated with the TaqStart™ antibody (ProMega) according to manufacturer's instructions. Radioactive PCR reactions were analyzed on 5% non-denaturing polyacrylamide gels, dried, and exposed to phosphoimage screens (Molecular Dynamics) for 1 hour. Screens were scanned with a Molecular Dynamics Storm 860 and band intensities were quantified using ImageQuant™ software. Results are expressed as the ratio of radioactivity incorporated into the hTERT or OCT-4 band, standardized to the radioactivity incorporated into the 18s band.
Primers and amplification conditions for particular markers are as follows.

[1] = system: tumor lines 143B, 293, HT1080, Bxpc-3', DAOY and NIH3T3; assay: Ganciclovir treatment in vitro of tk+ tumor lines carrying hTERT promoter/tk constructs; assay type: cell-based; conditions: tk/+ stable clones or mass populations with pGRN266, pGRN267, pGRN268
Method: (§1) The ability of the hTERT promoter to specifically drive the expression of the thymidine kinase (tk) gene in tumor cells was tested using a variety of constructs: One construct, designated pGRN266, contains an EcoRI-FseI PCR fragment with the tk gene cloned into the EcoRI-FseI sites of pGRN263. pGRN263, containing approximately 2.5 kb of hTERT promoter sequence, is similar to pGRN150, but contains a neomycin gene as selection marker. pGRN267 contains an EcoRI-FseI PCR fragment with the tk gene cloned into the EcoRI-FseI sites of pGRN264. pGRN264, containing approximately 210 bp of hTERT promoter sequence, is similar to pGRN176, but contains a neomycin gene as selection marker. pGRN268 contains an EcoRI-XbaI PCR fragment with the tk gene cloned into the EcoRI-XbaI (unmethylated) sites of pGRN265. pGRN265, containing approximately 90 bp of hTERT promoter sequence, is similar to pGRN175, but contains a neomycin gene as selection marker.
(§2) These hTERT promoter/tk constructs, pGRN266, pGRN267 and pGRN268, were reintroduced into mammalian cells and tk/+stable clones (and/or mass populations) were selected. […] Ganciclovir treatment had no effect on normal BJ cells.

H9 hES cell line clones = assay: Ganciclovir sensitivity screen of stable GRN376mod-transfected hES clones; assay type: cell-based, human; conditions: ten of ninety GRN376mod clones; ganciclovir at a concentration of 30 μg
Source text: To facilitate creation of stable cell lines genetically altered with the hTERT promoter/thymidine kinase construct, plasmid pGRN376 (Example X) was modified to delete most of the adenovirus sequence. The plasmid was digested with Stul and Not I, followed by blunting and re-ligation. The remaining vector contained the hTERT promoter/thymidine kinase construct, preceded by the transcription blocking sequence to prevent promotion of tk gene expression by promoter sequences upstream from the integration site in the genome. The modified vector was designated pGRN376mod.
Cultures of the H9 hES cell line were split 1:4 using PBS containing 0.5 mM EDTA, as described earlier, and plated in feeder-free culture in 6-well plates. Twenty-four hrs after plating, cells were cotransfected with 2 μg GRN376mod plus 0.5 μg of a plasmid encoding neomycin pho, using FuGENETM-6 as described above. Medium containing 200 μg/mL geneticin was added 48 h after transfection to select out transfected cells. After 7-10 days in geneticin-containing medium, 103 individual colonies were picked from the wells and individually plated in 24-well plates, which were then expanded by culturing for ˜7 days. Ninety individual clones were screened for sensitivity to the pro-drug ganciclovir at a concentration of 30 μg. […]

[2] = system: Undifferentiated hES lines H1 and H7; assay: Comparison of hES lines: total cell number after pGRN376 and GCV; assay type: cell-based, human; conditions: mock-transduced cells
Method: Undifferentiated hES of lines designated H1 and H7 cells were plated into 24 well plates (1 confluent well of a 6 well plate split into 24 wells of a 24 well plate). […] Four h after addition of the viral vector, medium was exchanged for new mEF-CM; some wells received medium supplemented with 20 AM GCV. Cells exposed to GCV were re-fed with mEF-CM containing GCV daily for 3 days. On day 4 after the initiation of GCV treatment, wells were harvested and analyzed by flow cytometry to assess changes in total cell number.

[3] = system: Undifferentiated H1 hES cells; assay: Titration of GCV in TPAC vector treated hES cells; assay type: cell-based, human; conditions: hES cells transduced with pGRN376 at MOI 30; 5, 10, 20, 30, 40 μM tested; day 2
Method: Undifferentiated H1 cells were plated into 24 well plates (1 confluent well of a 6 well plate split into 24 wells of a 24 well plate). After 48 h, some wells were infected with pGRN376 at an MOI of 30. Four h after addition of the viral vector, medium was exchanged for new mEF-CM; some wells received medium supplemented with 5, 10, 20, 30, or 40 μM ganciclovir (GCV). Cells exposed to GCV were re-fed with MEF-CM containing GCV daily for 2 days. On day 2 after the initiation of GCV treatment, wells were harvested and analyzed by flow cytometry to assess changes in total cell number, and cell viability (measured by PI exclusion).

normal BJ cells = assay: Ganciclovir treatment in vitro of normal cells carrying hTERT promoter/tk constructs; assay type: cell-based
Method: as §1, §2

hES cells = assay: Neuron formation from directly differentiated hES cells with neurotrophin growth factors (count of β-tubulin positive cells); assay type: cell-based, human; conditions: fixed after 7 days of differentiation
Method: The effect of several members of the neurotrophin growth factor family was examined. hES cells were differentiated by harvesting with collagenase, dissociating, and reseeding onto poly-ornithine coated cover slips. The cells were plated into DMEM/F12+N2+10% FBS overnight. The following day, the serum was removed from the medium and replaced with 10 ng/mL human bFGF and the growth factor being tested. After 24 hours, bFGF was removed from the medium. These cultures were fed every other day. They were fixed after 7 days of differentiation and immunostained for analysis. The number of neurons was evaluated by counting cells positive for β-tubulin. Cultures maintained in the presence of 10 ng/mL brain derived neurotrophic factor (BDNF) formed approximately 3-fold more neurons than the control cultures. Cultures maintained in neurotrophin-3 (1 ng/mL) formed approximately 2-fold more neurons than control cultures.

Question: For CN[C@@H]1[C@@H](O)[C@@H](O[C@@H]2[C@@H](O)[C@H](O[C@H]3O[C@H]([C@@H](C)O)[C@@H](O)[C@H](O)[C@H]3N)[C@@H](N)C[C@H]2N)OC[C@]1(C)O [geneticin], which “time in which all mock-transfected cultures died” value (H1 hES cells) is on record?
Answer: 48 to 72 h

Question: C[S+](C)[O-] [dimethyl sulfoxide] was tested. Which “expression of hTERT” value (hTERT) did it give?
Answer: markedly decreased

Question: How did the “effect of ganciclovir treatment on tk+ tumor lines” value [1] turn out when Nc1nc(O)c2ncn(COC(CO)CO)c2n1 [ganciclovir] was run?
Answer: selective destruction of all tumor lines tested

Question: What about the “time in which essentially all undifferentiated cells died” value (H9 hES cell line clones) of the same molecule?
Answer: 1 to 3 days

Question: What about the “toxicity induced by GCV alone, H7 compared with H1” value [2] of the same molecule?
Answer: less toxicity

Question: What about the “optimal GCV concentration” value [3] of the same molecule?
Answer: ~20 µM

Question: And the “effect of ganciclovir treatment on normal cells” value (normal BJ cells)?
Answer: no effect

B1: brain derived neurotrophic factor (protein, UniProt P23560 19-247, looked up)
Neurotrophic factor BDNF …: APMKEANIRGQGGLAYPGVRTHGTLESVNGPKAGSRGLTSLADTFEHVIEELLDEDQKVRPNEENNKDADLYTSRVMLSSQVPLEPPLLFLLEEYKNYLDAANMSMRVRRHSDPARRGELSVCDSISEWVTAADKKTAVDMSGGTVTVLEKVPVSKGQLKQYFYETKCNPMGYTKEGCRGIDKRHWNSQCRTTQSYVRALTMDSKKRIGWRFIRIDTSCVCTLTIKRGR
notes: neurotrophin growth factor
Question: How did the “neurons formed relative to control cultures (cells positive for β-tubulin)” value (hES cells; 10 ng/mL) turn out when B1 was run?
Answer: approximately 3 fold

B2: neurotrophin-3 (protein, UniProt P20783 139-257, looked up)
Neurotrophin-3: YAEHKSHRGEYSVCDSESLWVTDKSSAIDIRGHQVTVLGEIKTGNSPVKQYFYETRCKEARPVKNGCRGIDDKHWNSQCKTSQTYVRALTSENNKLVGWRWIRIDTSCVCALSRKIGRT
notes: neurotrophin growth factor
Question: How did the “neurons formed relative to control cultures (cells positive for β-tubulin)” value (hES cells; 1 ng/mL) turn out when B2 was run?
Answer: approximately 2 fold
